system: LAD2 cells; type: cell-based, human; details: not given
Source text: In anaphylactoid reactions, the main mechanism involves the direct stimulation of mast cells or basophils, leading to the release of anaphylactic mediators such as histamine and β-hexosaminidase. A recent study by McNeil et al. (McNeil B D et al., 2015) reported that MrgprX2, a specific membrane receptor on human mast cells, induces anaphylactoid reactions. The LAD2 (Laboratory of Allergic Diseases 2) human mast cell line, derived from human mast cell sarcoma/leukemia (Kirshenbaum et al., 2003), is commonly employed to study anaphylactoid reactions, because its biological properties are identical to those of primary human mast cells, including the overexpression of the MrgprX2 receptor and sensitivity towards degranulating peptides (Kulka et al., 2008). The release of anaphylactic mediators such as f-hexosaminidase, is assessed by fluorometric quantification.
On the day of the assay, serial dilutions of compounds were added to LAD2 cells plated at 20000 cells/well in a 96-well plate. After incubation for 30 minutes, the amount of β-hexosaminidase released into the supernatants and in cell lysates was quantified using the fluorogenic substrate 4-methylumbelliferyl-N-acetyl-b-D-glucosaminide. Dose-response curves were generated by plotting the % of β-hexosaminidase release (y-axis) against the concentrations of peptides tested (x-axis). […]. (Table 2D).

Row | EC50 | Molecule
1 | > 100 µM | CC[C@H](C)[C@@H]1NC(=O)[C@@H](NC(=O)[C@@H]2CCCN2C(=O)[C@@H](NC(=O)[C@H](Cc2cnc[nH]2)NC(=O)[C@@H](NC(=O)[C@H](CCC(=O)O)NC(=O)CC(C)C)[C@@H](C)O)C(c2ccccc2)c2ccccc2)CSSC[C@@H](C(N)=O)NC(=O)[C@@H](CCCCNC(=O)CCOCCOCCOCCOCCOCCOCCOCCOC)NC(=O)C[C@H](Cc2ccccc2)NC(=O)[C@H](CCCCNC(=O)COCCOCCNC(=O)COCCOCCNC(=O)CCCCCNC(=O)CCCCCCCCCCCCCCCCC(=O)O)NC1=O [Compound 256, Isovaleric Acid-E-T-H-[Dpa]-P—C—I-[Lys(1PEG2_1PEG2_Ahx_C18_Diacid)]-[bhPhe]-[(D)Lys(PEG7_OMe)]—C—NH2]
2 | > 100 µM | CC[C@H](C)[C@@H]1NC(=O)[C@@H](NC(=O)[C@@H]2CCCN2C(=O)[C@@H](NC(=O)[C@H](Cc2cnc[nH]2)NC(=O)[C@@H](NC(=O)[C@H](CCC(=O)O)NC(=O)CC(C)C)[C@@H](C)O)C(c2ccccc2)c2ccccc2)CSSCC(C(N)=O)NC(=O)[C@@H](CCCCNC(=O)CCOCCOCCOCCOCCOCCOCCOCCOCCOCCOCCOCCOC)NC(=O)C[C@H](Cc2ccccc2)NC(=O)[C@H](CCCCNC(=O)COCCOCCNC(=O)COCCOCCNC(=O)CCCCCNC(=O)CCCCCCCCCCCCCCCCC(C)=O)NC1=O (some centres unmarked) [Compound 255, Isovaleric Acid-E-T-H-[Dpa]-P—C—I-[Lys(1PEG2_1PEG2_Ahx_C18_Diacid)]-[bhPhe]-[(D)Lys(PEG11_OMe)]—C—NH2]
3 | > 100 µM | CCCCCCCCCCCCCCCC(=O)NCCCCCC(=O)NCCCC[C@@H]1NC(=O)C[C@H](Cc2ccccc2)NC(=O)[C@@H](CCCCNC(=O)CCOCCOCCOCCOCCOCCOCCOCCOCCOCCOCCOCCOC)NC(=O)[C@H](C(C)CC)NC(=O)C(NC(=O)[C@@H]2CCCN2C(=O)[C@@H](NC(=O)[C@H](Cc2cnc[nH]2)NC(=O)[C@@H](NC(=O)[C@H](CCC(=O)O)NC(=O)CC(C)C)[C@@H](C)O)C(c2ccccc2)c2ccccc2)CSSC[C@@H](C(N)=O)NC(=O)[C@@H](CCCCNC(=O)CCOCCOCCOCCOCCOCCOCCOCCOCCOCCOCCOCCOC)NC1=O (some centres unmarked) [Compound 19, Isovaleric Acid-E-T-H-[Dpa]-P-[Cys]-I-[(D)Lys(2Peg11′_OMe)]-[bhPhe]-[Lys(Ahx_Palm)]-[(D)Lys(2Peg11′_OMe)]-[Cys]-NH2]
4 | > 33 µM | CC[C@H](C)[C@@H]1NC(=O)[C@@H](NC(=O)[C@@H]2CCCN2C(=O)[C@@H](NC(=O)[C@H](Cc2cnc[nH]2)NC(=O)[C@@H](NC(=O)[C@H](CCC(=O)O)NC(=O)CC(C)C)[C@@H](C)O)C(c2ccccc2)c2ccccc2)CSSC[C@@H](C(N)=O)NC(=O)[C@@H](CCCCN)NC(=O)C[C@H](Cc2ccccc2)NC(=O)[C@H](CCCCNC(=O)COCCOCCNC(=O)COCCOCCNC(=O)CC[C@H](NC(=O)CCCCCCCCCCCCCCCCC(=O)O)C(=O)O)NC1=O [Compound 107, Isovaleric Acid-E-T-H-[Dpa]-P-[Cys]-I-[Lys(1Peg2_1Peg2_IsoGlu_C18_Diacid)]-[bhPhe]-[(D)Lys]-[Cys]-NH2]
5 | 27 µM | CC[C@H](C)C1NC(=O)[C@@H](NC(=O)[C@@H]2CCCN2C(=O)[C@@H](NC(=O)[C@H](Cc2cnc[nH]2)NC(=O)[C@@H](NC(=O)[C@H](CCC(=O)O)NC(=O)CC(C)C)[C@@H](C)O)C(c2ccccc2)c2ccccc2)CSSC[C@@H](C(N)=O)NC(=O)[C@@H](CCCCN)NC(=O)C[C@H](Cc2ccccc2)CC(=O)C(CCCCNC(=O)CCOCCOCCOCCOCCOCCOCCOCCOCCOCCOCCOCCOCCNC(=O)CCCCCCCCCCCCCCCCC(=O)O)NC1=O (some centres unmarked) [Compound 113, Isovaleric Acid-E-T-H-[Dpa]-P-[Cys]-I-[Lys(2Peg11′_C18_Diacid)]-[bhPhe]-[(D)Lys]-[Cys]-NH2]

same assay, conditions: LAD2 mast cells, β-hexosaminidase release, 30 minutes incubation; read-out: EC50: LAD2

Row | Molecule | EC50
6 | Isovaleric Acid-E-T-H-[Dpa]-P—C—I-[Lys(PEG12_C18_Diacid)]-[bhPhe]-[(D)Lys(PEG11_OMe)]—C—NH2 [Compound 293] | > 100 µM
7 | Isovaleric Acid-E-T-H-[Dpa]-P—C—I-[Lys(1PEG2_1PEG2_IsoGlu_C14_Diacid)]-[bhPhe]-[(D)Lys]-C—NH2 [Compound 233] | > 100 µM
8 | Isovaleric Acid-E-T-H—F—P—C—I-[Lys(1PEG2_1PEG2_IsoGlu_C18_Diacid)]-F-E-P—R—S—K-G-C—NH2 [Compound 206] | > 100 µM
9 | Isovaleric Acid-E-T-H-[Dpa]-P—C—I-[Lys(1PEG2_1PEG2_1PEG2_C18_Diacid)]-[bhPhe]-[(D)Lys]-C—NH2 [Compound 254] | > 33 µM
10 | Isovaleric Acid-E-T-H-[Dpa]-P—C—I-[Lys(PEG12_IsoGlu_Palm)]-[bhPhe]-[(D)Lys(PEG11_OMe)]—C—NH2 [Compound 291] | > 100 µM
11 | Isovaleric Acid-E-T-H-[Dpa]-P—C—I-[Lys(PEG4_PEG4_IsoGlu_C18_Diacid)]-[bhF]-[(D)Lys]-C—NH2 [Compound 237] | > 100 µM
12 | Isovaleric Acid-E-T-H-[Dpa]-P—C—I-[Lys(1PEG2_1PEG2_IsoGlu_C16_Diacid)]-[bhPhe]-[(D)Lys]-C—NH2 [Compound 232] | > 100 µM
13 | Isovaleric Acid-E-T-H-F—P—C—I-[Lys(IsoGlu_Palm)]-F-E-P—R-S—K-G-C—NH2 [Compound 225] | 4.8 µM
14 | Isovaleric Acid-E-T-H—F—P—C—I-[Lys(IsoGlu_Palm)]-F-E-P—R-S-G-C—NH2 [Compound 226] | 15.7 µM
15 | Isovaleric Acid-E-T-H-[Dpa]-P—C—I-[Lys(1PEG8_IsoGlu_C18_Diacid)]-[bhPhe]-[(D)Lys]-C—NH2 [Compound 238] | > 100 µM
16 | Isovaleric Acid-[Glu_OMe]-T-H-[Dpa]-P—C—I-[Lys(1PEG2_1PEG2_Ahx_C18_Diacid)]-[bhPhe]-[(D)Lys]-C—NH2 [Compound 277] | 11.7 µM
17 | Isovaleric Acid-E-T-H—F—P—C—I-[Lys(IsoGlu_Palm)]-F-E-P—R—S—K-G-[Pen]-K—NH2 [Compound 224] | 2.6 µM
18 | Isovaleric Acid-E-T-H-[Dpa]-P—C—I-[Lys(1PEG2_1PEG2_Ahx_C18_Diacid)]-[bhPhe]-[(D)Lys]-[Pen]-NH2 [Compound 280] | 24.3 µM
19 | Isovaleric Acid-E-T-H-[Dpa]-P—C—I-[Lys(1PEG2_1PEG2_IsoGlu_C18_Diacid)]-[bhPhe]-[(D)Lys]-[Pen]-NH2 [Compound 281] | > 100 µM
20 | Isovaleric Acid-E-T-H—F—P—C—I-[Lys(1PEG2_1PEG2_Ahx_C18_Diacid)]-F-E-P—R—S—K-G-C—K—NH2 [Compound 221] | > 100 µM
21 | Isovaleric Acid-E-T-H—F—P—C—I-[Lys(IsoGlu_C18_Diacid)]-F-E-P—R—S—K-G-C—K—NH2 [Compound 222] | > 100 µM
22 | Isovaleric Acid-E-T-H-[Dpa]-P-[Cys]-I-[Lys(2Peg11′_IsoGlu_C18)]-[bhPhe]-[(D)Lys]-[Cys]-NH2 [Compound 112] | 0.52 µM
23 | Isovaleric Acid-E-T-H-[Dpa]-P—C—I-[Lys(PEG12_C16_Diacid)]-[bhPhe]-[(D)Lys]-C—NH2 [Compound 265] | 23.1 µM
24 | Isovaleric Acid-E-T-H-[Dpa]-P—C—I-[Lys(PEG12_IsoGlu_C18_Diacid)]-[bhPhe]-[(D)Lys(PEG11_OMe)]—C—NH2 [Compound 292] | > 100 µM
25 | Isovaleric Acid-E-T-H—F—P—C—I-[Lys(1PEG2_1PEG2_IsoGlu_C18_Diacid)]-F-E-P—R—S—K-G-C—K—NH2 [Compound 220] | > 33 µM
26 | Isovaleric Acid-E-T-H-[Dpa]-P—C—I-[Lys(PEG4_IsoGlu_C18_Diacid)]-[bhF]-[(D)Lys]-C—NH2 [Compound 239] | > 100 µM

From patent US20230295259A1 (Protagonist Therapeutics, Inc., priority 2020, published 2023)
